Several values for one entry are separate records, joined by “and”; a condition that tells them apart may be missing. Equal entries are not always repeated. Marks after values point to notes of the source that are not given here.
Experiments:
Assay type in all cases: cell-based
[1] = tested on: A. actinomycetemcomitans; experiment: Multi-species biofilm composition: absolute abundance of A. actinomycetemcomitans; settings: mean±SD n=3
Description: (§1) Biofilms are grown vertically on Calcium Deficient Hydroxyapatite (CAD-HA) disks (Hitemco Medical, Old Bethpage, USA) using the Amsterdam Active Adhesion model. Biofilms are allowed to establish during 24 h (37° C., 170 rpm) under micro-aerophilic conditions (6% O2, 7% CO2, 7% H2, 80% N2). After this 24 h, disks are rinsed 3 times a day for 3 minutes (RT, 250 rpm), for 3 consecutive days, by transferring the lid containing the disks to a new 24-well plate containing 2 mL/well of the appropriate substrate solution. As a negative control, PBS (pH 5.7) without substrate supplementation is used. After each rinsing step, disks are shortly dip-rinsed in a new 24-well plate containing fresh modified BHI medium (2 mL/well) to remove remaining substrate traces. Subsequently, the lid is transferred to another 24-well plate containing fresh modified BHI medium (2 mL/well), followed by incubation (micro-aerophilic, 37° C., 170 rpm) until the next rinsing step.
(§2) NADM, N-acetyl-D-glucosamine (“NADG”) and D-(+)-mannose are selected to determine their effects on multi-species biofilm composition. […] decrease in absolute numbers in at least four of the pathogenic bacterial species tested in the assay, compared to the control, the results of which are described in Table 1 below. Absolute abundances of bacterial species are shown as mean±SD (n=3) logarithmic values of the genome equivalents per millilitre (log(Geq/mL)).

[2] = tested on: F. nucleatum; experiment: Multi-species biofilm composition: absolute abundance of F. nucleatum; settings: mean±SD n=3
Description: as §1, §2

[3] = tested on: P. intermedia; experiment: Multi-species biofilm composition: absolute abundance of P. intermedia; settings: mean±SD n=3
Description: as §1
(§3) NADM, N-acetyl-D-glucosamine (“NADG”) and D-(+)-mannose are selected to determine their effects on multi-species biofilm composition. Repeated rinsing of the biofilms with the substrates at a concentration of 1M results in a significant decrease in absolute numbers in at least four of the pathogenic bacterial species tested in the assay, compared to the control, the results of which are described in Table 1 below. Absolute abundances of bacterial species are shown as mean±SD (n=3) logarithmic values of the genome equivalents per millilitre (log(Geq/mL)).

[4] = tested on: S. mutans; experiment: Multi-species biofilm composition: absolute abundance of S. mutans; settings: mean±SD n=3
Description: as §1, §3

[5] = tested on: S. sobrinus; experiment: Multi-species biofilm composition: absolute abundance of S. sobrinus; settings: mean±SD n=3
Description: as §1, §2

[6] = tested on: A. naeslundii; experiment: Multi-species biofilm composition: absolute abundance of A. naeslundii; settings: mean±SD n=3
Description: as §1, §3

[7] = tested on: S. mitis; experiment: Multi-species biofilm composition: absolute abundance of S. mitis; settings: mean±SD n=3
Description: as §1, §2

[8] = tested on: S. oralis; experiment: Multi-species biofilm composition: absolute abundance of S. oralis; settings: for Absolute abundance S. oralis: mean±SD n=3
Description: as §1, §2

[9] = tested on: S. salivarius; experiment: Multi-species biofilm composition: absolute abundance of S. salivarius; settings: mean±SD n=3
Description: as §1, §3

[10] = tested on: V. parvula; experiment: Multi-species biofilm composition: absolute abundance of V. parvula; settings: mean±SD n=3
Description: as §1, §3

[11] = tested on: multi-species biofilm; experiment: Relative multi-species biofilm composition (groups of bacterial species)
Description: as §1, §2
Relative abundances of the different groups (beneficial/commensals, periodontal pathogens, cariogenic pathogens) of bacterial species are shown as mean±SD (n=3) percentage of the genome equivalents per millilitre (% (Geq/mL)). […] NADM: N-acetyl-D-mannosamine; NADG: N-acetyl-D-glucosamine.

[12] = tested on: P. gingivalis virulence genes; experiment: Multi-species biofilm virulence gene expression, SYBR RT-qPCR: P. gingivalis; settings: for Fold Change in virulence gene expression: fimA / Fold Change in virulence gene expression: kgp / Fold Change in virulence gene expression: partC / Fold Change in virulence gene expression: rgpA: relative to control, 2^-ΔΔCt, geometric mean n=3
Description: as §1
(§4) The expression of 33 virulence genes from 4 periodontal pathogens is analysed to evaluate the relative virulence of the substrate-treated biofilms. For all three substrates, virulence gene expression is determined relatively to the control, and these values are also compared between substrates when this is relevant (Tables 5a-5d).

[13] = tested on: F. nucleatum virulence genes; experiment: Multi-species biofilm virulence gene expression, SYBR RT-qPCR: F. nucleatum; settings: for Fold Change in virulence gene expression: ABC transp. perm. / Fold Change in virulence gene expression: EF-G / Fold Change in virulence gene expression: but.-coA transf. / Fold Change in virulence gene expression: hemin receptor / Fold Change in virulence gene expression: hemolysin / Fold Change in virulence gene expression: ompA / Fold Change in virulence gene expression: transposase: relative to control (=1), 2^-ΔΔCt, geometric mean n=3
Description: as §1, §4

[14] = tested on: P. intermedia virulence genes; experiment: Multi-species biofilm virulence gene expression, SYBR RT-qPCR: P. intermedia; settings: for Fold Change in virulence gene expression: DnaJ / Fold Change in virulence gene expression: DnaK / Fold Change in virulence gene expression: ECF / Fold Change in virulence gene expression: GroES / Fold Change in virulence gene expression: HtpG / Fold Change in virulence gene expression: KpsD / Fold Change in virulence gene expression: adpc / Fold Change in virulence gene expression: clpB / Fold Change in virulence gene expression: inpA / Fold Change in virulence gene expression: phg: relative to control (=1), 2^-ΔΔCt, geometric mean n=3
Description: as §1, §4

[15] = substrate 1%(w/v) in PBS, mean±SD n=3
[16] = substrate 1 M in PBS, mean±SD n=3

CC(=O)N[C@H]1C(O)O[C@H](CO)[C@@H](O)[C@@H]1O (stereo partly drawn) [NADG, N-acetyl-D-glucosamine, reference compound]
Absolute abundance Aa (A. actinomycetemcomitans) ([1]; substrate 1%(w/v) in PBS): 9.11 ± 0.20 log(Geq/mL)
Absolute abundance Aa (A. actinomycetemcomitans) ([1]; substrate 1 M in PBS): 6.6 ± 0.93 log(Geq/mL)
Absolute abundance Fn (F. nucleatum) ([2]; substrate 1%(w/v) in PBS): 9.41 ± 0.19 log(Geq/mL)
Absolute abundance Fn (F. nucleatum) ([2]; substrate 1 M in PBS): 7.09 ± 0.30 log(Geq/mL)
Absolute abundance Pi (P. intermedia) ([3]; substrate 1%(w/v) in PBS): 8.17 ± 0.22 log(Geq/mL)
Absolute abundance Pi (P. intermedia) ([3]; substrate 1 M in PBS): 6.93 ± 0.62 log(Geq/mL)
Absolute abundance S. mutans ([4]; substrate 1%(w/v) in PBS): 7.83 ± 0.23 log(Geq/mL)
Absolute abundance S. mutans ([4]; substrate 1 M in PBS): 8.95 ± 0.38 log(Geq/mL)
Absolute abundance S. sobrinus ([5]; substrate 1%(w/v) in PBS): 4.87 ± 0.22 log(Geq/mL)
Absolute abundance S. sobrinus ([5]; substrate 1 M in PBS): 4.16 ± 0.44 log(Geq/mL)
Absolute abundance An (A. naeslundii) ([6]; substrate 1%(w/v) in PBS): 7.71 ± 0.12 log(Geq/mL)
Absolute abundance An (A. naeslundii) ([6]; substrate 1 M in PBS): 6.52 ± 0.20 log(Geq/mL)
Absolute abundance S. mitis ([7]; substrate 1%(w/v) in PBS): < LOD
Absolute abundance S. mitis ([7]; substrate 1 M in PBS): <LOD
Absolute abundance S. oralis ([8]; substrate 1%(w/v) in PBS): 7.11 ± 0.14 log(Geq/mL)
Change in S. oralis numbers compared to the control ([8]; substrate 1 M): +1.0 log(Geq/mL)
Absolute abundance S. oralis ([8]; substrate 1 M in PBS): 7.97 ± 0.31*^, #1 log(Geq/mL)
Absolute abundance S. sal. (S. salivarius) ([9]; substrate 1%(w/v) in PBS): 2.65 ± 0.00 log(Geq/mL)
Absolute abundance S. sal. (S. salivarius) ([9]; substrate 1 M in PBS): 4.38 ± 1.23 log(Geq/mL)
Absolute abundance Vp (V. parvula) ([10]; substrate 1%(w/v) in PBS): 9.77 ± 0.19 log(Geq/mL)
Absolute abundance Vp (V. parvula) ([10]; substrate 1 M in PBS): 10.57 ± 0.24 log(Geq/mL)
Relative abundance Beneficials/Commensals [11, 15]: 60.07 ± 8.25 % (Geq/mL)
Relative abundance Cariogenic Pathogens [11, 15]: 0.66±0.27 % (Geq/mL)
Relative abundance Periodontal Pathogens [11, 15]: 39.27 ± 7.98 % (Geq/mL)
Relative abundance Beneficial or commensals [11, 16]: 97.52±0.82 % (Geq/mL)
Relative abundance Cariogenic Pathogens [11, 16]: 2.35 ± 0.92 % (Geq/mL)
Relative abundance Periodontal Pathogens [11, 16]: 0.13±0.10 % (Geq/mL) and 0.13 ± 0.10 *^, #1 % (Geq/mL)
Decreases in A. actinomycetemcomitans, F. nucleatum, P. gingivalis, P. intermedia and S. sobrinus numbers vs control ([11]; substrate 1 M, range over the species): −1.5 to −2.5 log(Geq/mL)
P. gingivalis partC expression decrease ([12]; substrate 1%(w/v)): 2.8 fold
Fold Change in virulence gene expression: fimA ([12]; substrate 1%): 1.15 fold
Fold Change in virulence gene expression: kgp ([12]; substrate 1%): 1.81 fold
Fold Change in virulence gene expression: partC ([12]; substrate 1%): 0.36 fold
Fold Change in virulence gene expression: rgpA ([12]; substrate 1%): 1.31 fold
Fold Change in virulence gene expression: fimA ([12]; substrate 1M): 0.79 fold
Fold Change in virulence gene expression: kgp ([12]; substrate 1M): 0.07 fold
Fold Change in virulence gene expression: partC ([12]; substrate 1M): 0.19 fold
Fold Change in virulence gene expression: rgpA ([12]; substrate 1M): 0.39 fold
Fold Change in virulence gene expression: ABC transp. perm. ([13]; substrate 1%): 0.33 fold
Fold Change in virulence gene expression: EF-G ([13]; substrate 1%): 0.10 fold
Fold Change in virulence gene expression: but.-coA transf. ([13]; substrate 1%): 0.21 fold
Fold Change in virulence gene expression: hemin receptor ([13]; substrate 1%): 0.19 fold
Fold Change in virulence gene expression: hemolysin ([13]; substrate 1%): 0.79 fold
Fold Change in virulence gene expression: ompA ([13]; substrate 1%): 0.74 fold
Fold Change in virulence gene expression: transposase ([13]; substrate 1%): 0.98 fold
F. nucleatum hemolysin gene, upregulation ([13]; substrate 1 M): 1.9 fold
Fold Change in virulence gene expression: ABC transp. perm. ([13]; substrate 1M): 3.33 fold
Fold Change in virulence gene expression: EF-G ([13]; substrate 1M): 1.45 fold
Fold Change in virulence gene expression: but.-coA transf. ([13]; substrate 1M): 1.21 fold
Fold Change in virulence gene expression: hemin receptor ([13]; substrate 1M): 3.26 fold
Fold Change in virulence gene expression: hemolysin ([13]; substrate 1M): 1.90 fold
Fold Change in virulence gene expression: ompA ([13]; substrate 1M): 1.33 fold
Fold Change in virulence gene expression: transposase ([13]; substrate 1M): 1.27 fold
Relative P. intermedia virulence gene expression, downregulation ([14]; substrate 1%(w/v), D-(+)-mannose for 3 genes): unaffected
Fold Change in virulence gene expression: DnaJ ([14]; substrate 1%): 0.7 fold
Fold Change in virulence gene expression: DnaK ([14]; substrate 1%): 0.77 fold
Fold Change in virulence gene expression: ECF ([14]; substrate 1%): 0.48 fold
Fold Change in virulence gene expression: GroES ([14]; substrate 1%): 0.75 fold
Fold Change in virulence gene expression: HtpG ([14]; substrate 1%): 0.46 fold
Fold Change in virulence gene expression: KpsD ([14]; substrate 1%): 0.78 fold
Fold Change in virulence gene expression: adpc ([14]; substrate 1%): 0.67 fold
Fold Change in virulence gene expression: clpB ([14]; substrate 1%): 1.06 fold
Fold Change in virulence gene expression: inpA ([14]; substrate 1%): 0.53 fold
Fold Change in virulence gene expression: phg ([14]; substrate 1%): 0.69 fold
P. intermedia virulence gene expression, increases ([14]; substrate 1 M, range over genes): 2- to 20.3 fold
Fold Change in virulence gene expression: DnaJ ([14]; substrate 1M): 0.64 fold
Fold Change in virulence gene expression: DnaK ([14]; substrate 1M): 2.34 fold
Fold Change in virulence gene expression: ECF ([14]; substrate 1M): 20.32 fold
Fold Change in virulence gene expression: GroES ([14]; substrate 1M): 1.86 fold
Fold Change in virulence gene expression: HtpG ([14]; substrate 1M): 3.40 fold
Fold Change in virulence gene expression: KpsD ([14]; substrate 1M): 1.72 fold
Fold Change in virulence gene expression: adpc ([14]; substrate 1M): 2.65 fold
Fold Change in virulence gene expression: clpB ([14]; substrate 1M): 2.03 fold
Fold Change in virulence gene expression: inpA ([14]; substrate 1M): 4.52 fold
Fold Change in virulence gene expression: phg ([14]; substrate 1M): 0.57 fold
